Literature values in patent US10596038B2, “Corneal denervation for treatment of ocular pain” (Journey1, Inc., priority 2009, dated 2020).

Conditions: after 24 hours

SMILES: COc1cc(CNC(=O)CCCC/C=C/C(C)C)ccc1O [Capsaicin]
- detectability in the blood: undetectable
